Data taken from US11866430B2, “Naphthyridinone compounds useful as T cell activators” (priority 2018, dated 2024).
Read-outs that look alike come from different tables or passages of the source.

How the values were obtained:
[1] = tested on: OT-1 antigen-specific CD8+ T cells with MC38 tumor cells; test: Murine Cytotoxic T Lymphocyte Assay (IFN-γ); format: cell-based, mouse; details: Mus musculus, MC-38, read-out: msCTL INF-γ IC50, murine CTL IFN-γ (table title reads INF-γ Whole Blood Normalized Agonist EC50)
Excerpt: An antigen-specific cytolytic T-cell (CTL) assay was developed to evaluate functionally the ability of DGKα and DGKζ inhibitors to enhance effector T cell mediated tumor cell killing activity. CD8+ T-cells isolated from the OT-1 transgenic mouse recognize antigen presenting cells, MC38, that present the ovalbumin derived peptide […]. Recognition of the cognate antigen initiates the cytolytic activity of the OT-1 antigen-specific CD8+ T cells.
Functional CTL cells were generated as follows: OT-1 splenocytes from 8-12 week old mice were isolated and expanded in the presence of the […] peptide at 1 μg/mL and mIL2 at 10 U/mL. After three days, fresh media with mIL2 U/mL was added. On day 5 of the expansion, the CD8+ T cells were isolated and ready for use. Activated CTL cells may be stored frozen for 6 months. […] The cells were washed (3×) with fresh media to remove excess peptide. Finally, CTL cells that were pretreated with DGK inhibitors for 1 hour in a 96-well U bottom plate were combined with the antigen loaded MC38 tumor cells at a 1:10 ratio. The cells were then spun at 700 rpm for 5 min and placed in an incubator overnight at 37° C. After 24 hours, the supernatant was collected for analysis of IFN-γ cytokine levels by AlphaLisa purchased from Perkin Elmer.

[2] = tested on: Human venous whole blood; test: Human Whole Blood IFN-γ Assay; format: cell-based; details: Homo sapiens
Experimental: Human venous whole blood (22.5 μL per well), obtained from healthy donors, was pre-treated with compounds for one hour at 37° C. in a humidified 95% air/5% CO2 incubator. The blood was stimulated with 2.5 μL anti-human CD3 and anti-CD28 mAb at a final concentration of 1 μg/mL each for 24 hours at 37° C. IFN-γ in the supernatants was measured using AlphaLISA kit (Cat #AL217).

[3] = target: human DGKζ (Homo sapiens (Human), UniProt Q13574); test: DGKζ LIPGLO assay (extruded liposome substrate); format: biochemical
human DGKζ, sequence (Q13574 other isoform, or with tags, fused parts or gaps): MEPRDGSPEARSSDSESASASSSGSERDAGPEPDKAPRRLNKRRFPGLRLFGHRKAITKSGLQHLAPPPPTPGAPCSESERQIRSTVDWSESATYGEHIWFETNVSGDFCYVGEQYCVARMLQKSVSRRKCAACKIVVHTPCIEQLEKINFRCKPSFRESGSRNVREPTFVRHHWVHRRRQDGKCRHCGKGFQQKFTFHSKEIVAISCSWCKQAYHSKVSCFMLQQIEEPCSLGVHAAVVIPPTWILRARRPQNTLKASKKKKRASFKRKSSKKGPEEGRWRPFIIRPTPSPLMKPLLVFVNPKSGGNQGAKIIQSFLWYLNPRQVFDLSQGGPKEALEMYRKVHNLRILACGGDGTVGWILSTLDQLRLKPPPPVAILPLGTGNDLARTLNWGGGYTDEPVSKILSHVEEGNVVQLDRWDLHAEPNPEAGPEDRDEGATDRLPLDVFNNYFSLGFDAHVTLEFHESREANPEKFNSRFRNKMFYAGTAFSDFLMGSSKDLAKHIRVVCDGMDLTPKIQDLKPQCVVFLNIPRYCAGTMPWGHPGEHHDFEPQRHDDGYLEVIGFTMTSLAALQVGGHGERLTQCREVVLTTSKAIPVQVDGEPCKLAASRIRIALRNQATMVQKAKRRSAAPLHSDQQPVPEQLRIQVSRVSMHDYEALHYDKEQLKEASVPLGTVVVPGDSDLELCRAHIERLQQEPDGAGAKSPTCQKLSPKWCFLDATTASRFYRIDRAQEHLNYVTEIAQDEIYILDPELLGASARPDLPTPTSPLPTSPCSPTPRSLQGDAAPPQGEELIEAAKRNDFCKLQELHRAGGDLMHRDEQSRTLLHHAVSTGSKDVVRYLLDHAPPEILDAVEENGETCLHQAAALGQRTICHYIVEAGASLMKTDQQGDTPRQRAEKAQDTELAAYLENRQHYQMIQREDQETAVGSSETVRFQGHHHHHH
Summary of the method: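 Sf9-derived DGKζ was premixed 10 min with PC/DAG/PS liposomes (100 nm extruded) in MOPS pH 7.5 buffer containing NaCl, MgCl2, CaCl2 and DTT.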

[4] = human whole blood, anti-CD3 plus anti-CD28 as baseline, 3 μM Example 40 co-stimulation as 100% activation, read-out: INF-γ Whole Blood Normalized Agonist EC50
[5] = extruded liposome substrate, read-out: DGKζ LIPGLO IC50

Structure (SMILES) | IC50 [1] [µM] | EC50 [2, 4] [µM] | IC50 [3, 5] [µM] | EC50 ([2]; read-out: INF-γ Whole Blood Agonist EC50) [µM] | IC50 ([3]; DGKζ LIPGLO IC50, extruded liposome substrate) [µM]
COc1ccc2c(n1)c(N1CCN(C(c3ccc(F)cc3)c3ccc(F)cc3OC)CC1)c(C#N)c(=O)n2C (racemic) [Example 412, 4-{4-[(4-fluoro-2-methoxyphenyl)(4-fluorophenyl)methyl]piperazin-1-yl}-6-methoxy-1-methyl-2-oxo-1,2-dihydro-1,5-naphthyridine-3-carbonitrile] | 0.36 | 3.01 | 0.6 |  | 
COc1ccccc1C(c1ccc(F)cc1)N1CCN(c2c(C#N)c(=O)n(C)c3ccc(Br)nc23)CC1 (single isomer, unassigned) [Example 13, 6-bromo-4-{4-[(4-fluorophenyl)(2-methoxyphenyl)methyl]piperazin-1-yl}-1-methyl-2-oxo-1,2-dihydro-1,5-naphthyridine-3-carbonitrile] | 0.64 | 5 |  |  | 
COc1cc(F)ccc1C(c1ccc(F)cc1)N1CCN(c2c(C#N)c(=O)n(C)c3ccc(Br)nc23)CC1 (single isomer, unassigned) [Example 17, 6-bromo-4-{4-[(4-fluoro-2-methoxyphenyl)(4-fluorophenyl)methyl]piperazin-1-yl}-1-methyl-2-oxo-1,2-dihydro-1,5-naphthyridine-3-carbonitrile] | 0.19 | 1.15 | 9.4 | 0.67 | 
CC(c1ccc(F)cc1)N1CCN(c2c([N+](=O)[O-])c(=O)n(C)c3ccc(C#N)nc23)CC1 (single isomer, unassigned) [Example 44, 8-(4-(1-(4-fluorophenyl)ethyl)piperazin-1-yl)-5-methyl-7-nitro-6-oxo-5,6-dihydro-1,5-naphthyridine-2-carbonitrile] | 0.13 | 0.9 | 1.3 |  | 
C#CCn1c(=O)c([N+](=O)[O-])c(N2CCN(C(c3ccc(F)cc3)c3ccc(F)cc3O)CC2)c2nc(C#N)ccc21 (single isomer, unassigned) [Example 121, 8-(4-((4-fluoro-2-hydroxyphenyl)(4-fluorophenyl)methyl)piperazin-1-yl)-7-nitro-6-oxo-5-(prop-2-yn-1-yl)-5,6-dihydro-1,5-naphthyridine-2-carbonitrile] | 0.05 | 0.55 | 0.055 |  | 
C#CCn1c(=O)c([N+](=O)[O-])c(N2CCN(C(CC)c3ccc(F)cc3)CC2)c2nc(C#N)ccc21 (single isomer, unassigned) [Example 141, 8-{4-[1-(4-fluorophenyl)propyl]piperazin-1-yl}-7-nitro-6-oxo-5-(prop-2-yn-1-yl)-5,6-dihydro-1,5-naphthyridine-2-carbonitrile] | 0.29 |  | 1.4 |  | 
C#CCn1c(=O)c([N+](=O)[O-])c(N2CCN(C(c3ccc(F)cc3)C3CC3)CC2)c2nc(C#N)ccc21 (single isomer, unassigned) [Example 143, 8-(4-(cyclopropyl(4-fluorophenyl)methyl)piperazin-1-yl)-7-nitro-6-oxo-5-(prop-2-yn-1-yl)-5,6-dihydro-1,5-naphthyridine-2-carbonitrile] | 1.41 |  | 1.1 |  | 
CC(C)C(c1ccc(F)cc1)N1CCN(c2c(C#N)c(=O)n(C)c3ccc(Cl)nc23)CC1 (single isomer, unassigned) [Example 315, 6-chloro-4-{4-[1-(4-fluorophenyl)-2-methylpropyl]piperazin-1-yl}-methyl-2-oxo-1,2-dihydro-1,5-naphthyridine-3-carbonitrile] |  |  | 1.6 |  | 
Cn1c(=O)c(C#N)c(N2CCN(C(CC(C)(C)C)c3ccc(F)cc3)CC2)c2nc(Cl)ccc21 (single isomer, unassigned) [Example 377, 6-chloro-4-{4-[1-(4-fluorophenyl)-3,3-dimethylbutyl]piperazin-1-yl}-1-methyl-2-oxo-1,2-dihydro-1,5-naphthyridine-3-carbonitrile] |  |  | 130 |  | 
Cn1c(=O)c(C#N)c(N2CCN(C(CC(C)(C)C)c3ccc(F)cc3)CC2)c2nc(Cl)ccc21 (single isomer, unassigned) [Example 378, 6-chloro-4-{4-[1-(4-fluorophenyl)-3,3-dimethylbutyl]piperazin-1-yl}-1-methyl-2-oxo-1,2-dihydro-1,5-naphthyridine-3-carbonitrile] | 10 |  | > 240 |  | 
Cn1c(=O)c(C#N)c(N2CCN(C(c3ccc(F)cc3)C3CCC3)CC2)c2nc(Cl)ccc21 (single isomer, unassigned) [Example 382, 6-chloro-4-{4-[cyclobutyl(4-fluorophenyl)methyl]piperazin-1-yl}-1-methyl-2-oxo-1,2-dihydro-1,5-naphthyridine-3-carbonitrile] |  |  | > 240 |  | 
Cn1c(=O)c(C#N)c(N2CCN(C(c3ccc(F)cc3)C3CCC3)CC2)c2nc(Cl)ccc21 (single isomer, unassigned) [Example 383, 6-chloro-4-{4-[cyclobutyl(4-fluorophenyl)methyl]piperazin-1-yl}-1-methyl-2-oxo-1,2-dihydro-1,5-naphthyridine-3-carbonitrile] | 10 |  | > 2.4 |  | 
CC(c1ccc(F)cc1)N1CCN(c2c(C#N)c(=O)n(C)c3ccc(Cl)nc23)CC1 (single isomer, unassigned) [Example 387, 6-chloro-4-{4-[1-(4-fluorophenyl)ethyl]piperazin-1-yl}-1-methyl-2-oxo-1,2-dihydro-1,5-naphthyridine-3-carbonitrile] |  |  | 1.6 |  | 
CC(c1ccc(F)cc1)N1CCN(c2c(C#N)c(=O)n(C)c3ccc(Cl)nc23)CC1 (single isomer, unassigned) [Example 388, 6-chloro-4-{4-[1-(4-fluorophenyl)ethyl]piperazin-1-yl}-1-methyl-2-oxo-1,2-dihydro-1,5-naphthyridine-3-carbonitrile] |  |  | 130 |  | 
Cn1c(=O)c(C#N)c(N2CCN(C(c3ccc(F)cc3)c3ccccc3O)CC2)c2nc(C#N)ccc21 (stereo not shown) [Example 11, 8-{4-[(4-fluorophenyl)(2-hydroxyphenyl)methyl]piperazin-1-yl}-5-methyl-6-oxo-5,6-dihydro-1,5-naphthyridine-2,7-dicarbonitrile] |  |  |  |  | 1.8
Cn1c(=O)c([N+](=O)[O-])c(N2CCN(CC(O)c3ccc(F)cc3)CC2)c2nc(C#N)ccc21 (stereo not shown) [Example 36, 8-{4-[2-(4-fluorophenyl)-2-hydroxyethyl]piperazin-1-yl}-5-methyl-7-nitro-6-oxo-5,6-dihydro-1,5-naphthyridine-2-carbonitrile] | 10 |  | 18 |  | 
CCCCn1c(=O)c([N+](=O)[O-])c(N2CCN(C(c3ccccc3)c3ccccc3)CC2)c2ncccc21 [Example 177, 4-(4-benzhydrylpiperazin-1-yl)-1-butyl-3-nitro-1,5-naphthyridin-2(1H)-one] | 10 |  | 9.7 |  | 
Cc1ccc2c(n1)c(N1CCN(C(C)c3ccc(F)cc3)CC1)c(Br)c(=O)n2C (stereo not shown) [Example 224, 3-bromo-4-(4-(1-(4-fluorophenyl)ethyl)piperazin-1-yl)-1,6-dimethyl-1,5-naphthyridin-2(1H)-one] | 10 |  | 20 |  | 
Cc1ccc2c(n1)c(N1CCN(Cc3cccc(Cl)c3O)CC1)c(C#N)c(=O)n2C [Example 389, 4-{4-[(3-chloro-2-hydroxyphenyl)methyl]piperazin-1-yl}-1,6-dimethyl-2-oxo-1,2-dihydro-1,5-naphthyridine-3-carbonitrile] | 5.05 |  | 9.4 |  | 
Cn1c(=O)c(C#N)c(N2CCN(Cc3cccc4ccccc34)CC2)c2nc(C#N)ccc21 [Example 404, 5-methyl-8-{4-[(naphthalen-1-yl)methyl]piperazin-1-yl}-6-oxo-5,6-dihydro-1,5-naphthyridine-2,7-dicarbonitrile] | 9.84 |  | 3.9 |  | 
Cn1c(=O)c([N+](=O)[O-])c(N2CCN(Cc3cccc4ccccc34)CC2)c2nc(C#N)ccc21 [Example 415, 5-methyl-8-{4-[(naphthalen-1-yl)methyl]piperazin-1-yl}-7-nitro-6-oxo-5,6-dihydro-1,5-naphthyridine-2-carbonitrile] | 10 |  | 0.66 |  | 
COc1cc(C#N)ccc1CN1CCN(c2c(C#N)c(=O)n(C)c3ccc(Cl)nc23)CC1 [Example 424, 6-chloro-4-{4-[(4-cyano-2-methoxyphenyl)methyl]piperazin-1-yl}-1-methyl-2-oxo-1,2-dihydro-1,5-naphthyridine-3-carbonitrile] | 10 |  | 27 |  | 
